Experimental findings from PubChem BioAssay AID179 (DTP/NCI, 2004) are described below.

A word on the EC50: it is the concentration that produces a half-maximal response. For orientation: IC50 means the concentration that inhibits the measured activity by half. Low readings indicate greater potency in that assay, high ones weaker potency in that assay.

This experiment concerns CEM cells HIV-1 protection, formazan growth assay. Kind of experiment: NCI AIDS Antiviral Assay. To be noted: for IC50: measured here: growth of uninfected CEM cells. An outline of the steps: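 Protection of CEM cells against HIV-1 was scored from cell growth (soluble formazan) across five concentrations, with parallel uninfected cells. Lack of protection may reflect toxicity.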

Calls of active or inactive are those of the source.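 The calls were made as follows: active = compounds giving half or more protection of infected cells from virus-caused growth loss, again on retest; inactive = the rest.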

Take `O=C(NC(Cc1c[nH]c2ccccc12)C(=O)O)/C(=C/c1ccccc1)NC(=O)c1ccccc1` (stereo not given): the EC50 was more than 200 µM and the IC50 was determined as 135 µM.
For `Cc1cn(C2OC(C)(CO)C(O)C2O)c(=O)[nH]c1=O` (stereo not given), the EC50 is more than 912 µM and the IC50 is more than 912 µM.
As for `CN1C(=O)NC(C=O)(CCc2ccccc2)C1=O` (stereo not given), the outcome was inactive.
On to `CCOC(=O)/C(=C/c1ccc(C(=O)OC)cc1)N(CC)CC`, for which the EC50 is more than 427 µM and the IC50 was 67.6 µM.
Turning to `COc1ccc(/C=C/C(=O)c2cc(C(C)(C)C)c(O)c(C(C)(C)C)c2)cc1`, the EC50 is more than 10.2 µM and the IC50 came to 5.01 µM.
With `O=C1CSC(c2c[nH]c3ccccc23)N1c1cccc(Cl)c1` (stereo not given), the EC50 is more than 21.9 µM and the IC50 is more than 21.9 µM.
`CCCCCCCCCCCCCCCCOCC(Cl)CP(=O)(O)OP(=O)(O)OCC1OC(n2cnc3c(N)ncnc32)C(O)C1O` (stereo not given): the EC50 is more than 100 µM and the IC50 was more than 100 µM.
With `CN1C(=O)C(O)CC1c1cccc(F)c1` (stereo not given), the EC50 is more than 200 µM and the IC50 is more than 200 µM.
Consider `[Cl][Pt+2][Cl].[NH-]C1CCCC1[NH-]` (stereo not given), for which the EC50 is more than 200 µM and the IC50 is 49 µM.
With `COc1ccc(/C=C2/N=C(N/N=C\C(O)C(O)C(O)CO)NC2=O)cc1` (stereo not given), the EC50 is more than 200 µM, the result was inactive and the IC50 was found to be 79.4 µM.
On to `CCC1SC2=NCCN2C1(O)c1ccc(Cl)cc1` (stereo not given), for which the EC50 is more than 200 µM and the IC50 is 102 µM.
Regarding `O=C(/C=C/c1ccccc1)c1ccc(Cl)s1`, the EC50 is more than 200 µM and the IC50 was 12.3 µM.
For `CSC1(C(=O)O)C2CCC3C2CCC31` (stereo not given), the outcome was inactive.
As to `Nc1ccc(SSc2ccc(Nc3ccnc4cc(Cl)ccc34)cc2)cc1`, the EC50 is more than 200 µM and the IC50 was found to be 5.01 µM.
For `O=C(Cn1c2c(c3ccccc31)CCCC2)N1CCCC1`, the EC50 is more than 200 µM and the IC50 was more than 200 µM.
Regarding `S=c1nc(C(c2ccccc2)c2ccccc2)[nH][nH]1`, the EC50 is more than 135 µM and the IC50 was more than 135 µM.
As for `CC(=O)C1CC2(C(=O)C1=O)c1ccccc1-c1ccccc12` (stereo not given), the outcome was inactive.
On to `c1ccc(/N=N/c2ccccn2)nc1`, for which the EC50 was more than 200 µM and the IC50 was more than 200 µM.
Turning to `Cc1cc(=O)[nH]c2cc(N(C)C)ccc12`, the EC50 was more than 67.6 µM and the IC50 was more than 67.6 µM.
On to `Cc1cccc(C(C)O)n1` (stereo not given), for which the EC50 is more than 200 µM and the IC50 was more than 200 µM.
Take `COC(=O)[C@@H]1CSC(=S)N1C(=O)C[C@@H]1CC=CC[C@@H]1CC(=O)Sc1ccccc1`: the result was inactive.
Turning to `CC(C)(O)CCCC1CCC2C3CCC4CCCCC4(C)C3CCC2(C)C1O` (stereo not given), the EC50 is more than 200 µM and the IC50 was 9.33 µM.
Consider `CCOC(=O)NC(C(=O)OCC)C(F)(F)F` (stereo not given), for which the EC50 was more than 200 µM and the IC50 is 102 µM.
`Cc1c(Cl)c(=O)oc2cc(OCC(=O)c3ccccc3)ccc12`: the EC50 is more than 100 µM and the IC50 was more than 100 µM.
Take `COc1ccc(/C=C/c2nc(=S)[nH][nH]2)cc1`: the EC50 is more than 214 µM and the IC50 was more than 214 µM.
In the case of `COC(=O)C1(Cc2ccc3c(c2)CCC3)Cc2cc3c(cc2C1=O)CCC3` (stereo not given), the EC50 is more than 200 µM and the IC50 came to 30.9 µM.
The like results for `COc1cc(NC=O)c2c(c1)SCCC(=O)N2` were, in that order, more than 200 µM and more than 200 µM.
Turning to `CC(=O)Oc1ccc2c(c1)Oc1cc(OC(C)=O)ccc1C21OC(=O)c2ccccc21`, the EC50 is more than 200 µM.
For `C1CCC2(CC1)O[C@@H]1[C@@H](O2)[C@@H](O[C@H]2O[C@@H]3COC4(CCCCC4)O[C@H]3[C@@H]3OC4(CCCCC4)O[C@@H]23)O[C@@H]2COC3(CCCCC3)O[C@@H]12`, the EC50 was more than 100 µM and the IC50 was more than 100 µM.
Take `Cn1c(=O)nc2n(-c3ccc(Cl)c(C(F)(F)F)c3)c3ccccc3nc-2c1=O`: the result was inactive.
Consider `O=c1cc(C(F)(F)F)[nH]c2c3ncccc3c3nc4ccccc4nc3c12`, for which the EC50 is 0.214 µM and the half-maximal inhibitory concentration (IC50) came out at 2.82 µM.
For `CCCC(=O)c1ccc(=O)n(C)c1`, the EC50 was more than 1380 µM and the IC50 amounted to 1070 µM.
As to `COc1ccc(CNNCc2ccc(OC)cc2)cc1`, the EC50 is more than 200 µM and the IC50 is 110 µM.
Take `CC1OC(O[C@H]2/C=C/C=C/C=C/C=C/C=C/C=C/C=C/[C@H](C)[C@@H](O)[C@@H](C)[C@H](C)OC(=O)C[C@H](O)C[C@H](O)CC[C@@H](O)[C@H](O)C[C@H](O)C[C@]3(O)C[C@H](O)[C@@H](C(=O)O)[C@H](C2)O3)C(O)C(N)C1O` (stereo not given in full): the EC50 was more than 4.9 µM.
Turning to `Nc1c(C(=O)O)c2nc3c(CO)cccc3oc-2cc1=O`, the EC50 is more than 200 µM and the IC50 stood at 2.14 µM.
In the case of `O=[N+]([O-])C=C(c1ccc(Cl)cc1)c1ccc(Cl)cc1`, the outcome was inactive.
Turning to `CCCCCCCC1c2cc3[nH]c(cc4nc(cc5[nH]c(cc(n2)[C@@]1(C)CC(=O)N(C)C)c(C)c5CCC(=O)O)C(CCC(=O)O)=C4C)cc3C` (stereo not given in full), the EC50 was more than 200 µM and the IC50 is 7.59 µM.
With `O=[N+]([O-])c1ccc(-c2csc(=[N+]3CCCCC3)s2)cc1`, the result was inactive.
For the compound `CN1C/C(=C/c2ccc(N(C)C)cc2)C(=O)/C(=C/c2ccc(N(C)C)cc2)C1`, the EC50 was more than 200 µM and the IC50 was more than 200 µM.
On to `Cc1cccc(Nc2nc3ccccc3nc2NS(=O)(=O)c2ccc(N)cc2)c1`, for which the EC50 was more than 200 µM and the IC50 worked out at 112 µM.
Take `Cc1cc([N+](=O)[O-])ccc1NC(=O)C(=O)C(C(=O)c1ccccc1-c1ccccc1)C1OC(=O)c2ccccc21` (stereo not given): the EC50 is more than 178 µM and the IC50 is 28.2 µM.
Regarding `C[C@H]1CC[C@@H]2[C@@H](C)C[C@H]3[C@@H]4C(C)(C)OC(=O)[C@]4(C)C(=O)[C@@]23C1=O`, the EC50 is more than 200 µM and the IC50 amounted to 77.6 µM.
Consider `CN1CCc2ccccc2C(C(=O)c2ccc(Cl)cc2)C1=O` (stereo not given), for which the EC50 was more than 83.2 µM and the IC50 is more than 83.2 µM.
As to `COc1ccc(/C=C(\C#N)c2ccc([N+](=O)[O-])cc2)cc1[N+](=O)[O-]`, the EC50 was 182 µM and the IC50 worked out at 195 µM.
For the compound `O=C(CC(O)(C(F)(F)F)C(F)(F)F)c1cccc(Cl)c1`, the EC50 was more than 200 µM and the IC50 turned out to be 182 µM.
The like results for `c1ccc([P+](Cc2ccc(C[P+](c3ccccc3)(c3ccccc3)c3ccccc3)cc2)(c2ccccc2)c2ccccc2)cc1` were, in that order, 17.4 µM and 38 µM.
As for `CC(C)N(C(C)C)[PH+]1O[PH+](N(C(C)C)C(C)C)O[PH+](N(C(C)C)C(C)C)O[PH+](N(C(C)C)C(C)C)O[PH+](N(C(C)C)C(C)C)O1.[C-]#[O+].[C-]#[O+].[C-]#[O+].[C-]#[O+].[C-]#[O+].[C-]#[O+].[C-]#[O+].[Cr].[Cr]` (stereo not given), the EC50 is more than 25.1 µM and the IC50 is more than 25.1 µM.
As for `N#Cc1c(-c2ccccc2)/c(=C\O)c(=O)n2c1nc1ccccc12`, the EC50 is more than 200 µM and the IC50 was found to be 32.4 µM.
Turning to `OCC1OC(n2nc(-c3ccccc3)nc2-c2cnccn2)C(O)C(O)C1O` (stereo not given), the EC50 was more than 200 µM and the IC50 is more than 200 µM.
With `CCCN(CCC)CCc1ccc(OC2=CCN(C)CC2)cc1`, the EC50 is more than 200 µM and the IC50 was determined as 87.1 µM.
Taken in the same sequence, the figures for `Cc1nc2[nH]ncn2c(=O)c1CCCl` were more than 200 µM and 34.7 µM.
The like results for `O=[N+]([O-])c1ccc2c(N=Nc3ccc4ccccc4c3O)c(O)cc(S(=O)(=O)O)c2c1` were, in that order, more than 200 µM and 27.5 µM.
On to `CC(=O)N/N=C1\CC(C)(C)C2CCC1C2` (stereo not given), for which the result was inactive.
For the compound `COc1ccc2c(c1)CCCN1CCc3cc(OC)c(OC)cc3C21` (stereo not given), the EC50 was more than 200 µM and the IC50 is more than 200 µM.
In the case of `N#C/C(C(=O)Nc1ccccc1)=C(/N)N1CCOCC1`, the EC50 is more than 200 µM and the IC50 is more than 200 µM.
On to `CC1=C(C(=O)NCc2ccccc2)C(/C=C/c2ccccc2)C(C(=O)NCc2ccccc2)=C(C)N1`, for which the outcome was inactive.
As to `[C-]#[N+][C@@]1(C)CCC2C(C)CC[C@@H](C(=C)C)[C@@]23C=C(C)CC[C@H]31` (stereo not given in full), the EC50 is more than 200 µM and the IC50 worked out at 138 µM.
For the compound `O=C(/N=N/C(=O)N1CCCCC1)N1CCCCC1`, the EC50 was more than 67.6 µM and the IC50 was determined as 28.8 µM.
On to `O=C1NC2(NC(=O)C1=O)Nc1ccccc1S2`, for which the EC50 was more than 28.8 µM and the IC50 is more than 28.8 µM.
As to `CCC(CC)C(=O)NCC(=O)NO`, the EC50 is more than 200 µM and the IC50 is more than 200 µM.
As to `COc1ccc(/C=C(\C#N)c2ccccc2[N+](=O)[O-])cc1`, the EC50 is more than 200 µM and the IC50 is 12.6 µM.
Take `Nc1cc(Cl)c(S(=O)(=O)O)cc1Cl`: the EC50 is more than 200 µM and the IC50 was more than 200 µM.
As for `CC1=C(O[Si](C(C)C)(C(C)C)C(C)C)C2CC1(OS(=O)(=O)C(F)(F)F)[C@H]1C(=O)N(c3ccccc3)C(=O)[C@@H]21` (stereo not given in full), the EC50 was more than 4.79 µM and the IC50 was more than 4.79 µM.
On to `COc1ccc(-c2c3c(nc4nc(SCC(=O)c5ccc(Br)cc5)nc(N)c24)CCCC3)cc1OC`, for which the EC50 was more than 200 µM and the half-inhibitory concentration (IC50) is 151 µM.
Regarding `O=C(NNCc1ccccc1O)c1ccccc1O`, the EC50 is more than 200 µM and the half-inhibitory concentration (IC50) worked out at 2.88 µM.
Taken in the same sequence, the figures for `O=C1CC(c2ccoc2)NC(=O)N1CCCl` (stereo not given) were more than 200 µM and more than 200 µM.
`C=C1C(=O)C23OC2C1CCC(=O)C1(C)CC[C@H](OC(C)=O)C(C)(C)[C@H]1CC3O` (stereo not given in full): the EC50 is more than 200 µM and the IC50 came out at 1.2 µM.
For `O=C(O)c1nc2ccccc2nc1NCc1ccc(F)cc1`, the EC50 was more than 200 µM and the IC50 is 56.2 µM.
As for `Clc1ccc2cccc3c2c1C1OC3c2ccccc21` (stereo not given), the outcome was inactive.
As to `CCCCC(C(=O)O)C1=CCCCC1` (stereo not given), the outcome was inactive.
For the compound `CCOC(=O)C12C(C(=O)O)=C(N)CN1CCc1c2[nH]c2ccccc12` (stereo not given), the EC50 is more than 58.9 µM and the IC50 was more than 58.9 µM.
